Patent publication US20190269721A1, “METHODS AND COMPOSITIONS FOR DEGRADING CALCIUM PHOSPHATE AND FOR TREATING CALCIFICATION DISORDERS” (MERZ NORTH AMERICA, INC., priority 2016, published 2019)
Where two headings read alike, the source gives them in different places. Values belong to the compound of their own block, whether it stands above or below them.

Columns and labels:
[1] = background statement; cited from earlier work
[2] = Degradation of Radiesse calcium hydroxyapatite filler injected into human skin samples (histology of punch biopsy); settings: for dissolution of calcium hydroxyapatite in the samples: 24 hours after treatment, histology
Method: Human skin samples (two living skin samples taken from living tissue in each group) were injected with 0.4 mL Radiesse®.
The samples were then randomized to three treatment groups: topical sodium metabisulfite (25% (w/v) SMB, formulated in petrolatum jelly, about 1-2 grams SMB applied topically to each site on the skin) application with occlusion, intralesional injection of about 0.4-0.8 mL sodium thiosulfate solution (STS, concentration 12.5 g/50 mL i.e., 0.25 g/mL), or both. In the control group, samples were not treated after the Radiesse® injection.
(§1) Twenty-four hours after treatment, a 4-mm punch biopsy was obtained and processed for histology to evaluate the presence, absence, or degradation of calcium hydroxyapatite (FIGS. 1E-1F). A blinded, board-certified dermatopathologist read the samples and determined the amount of calcium present in each sample.

[3] = Degradation of Radiesse calcium hydroxyapatite filler injected into porcine samples (histology of punch biopsy); settings: for dissolution of calcium hydroxyapatite in the samples: 24 hours after treatment, histology
Method: In a prospective, single-center clinical trial, 12 porcine samples (pieces of fresh pork shoulder) were injected with Radiesse®, with volumes ranging from 0.4 to 0.8 mL.
The samples were then randomized to three treatment groups: topical sodium metabisulfite (25% (w/v) SMB, formulated in petrolatum jelly: about 1-2 grams SMB applied topically to each site on the skin, 25% (w/v) sodium metabisulfite in 120 ml gel) application with occlusion, intralesional injection of about 0.2 mL of sodium thiosulfate solution (STS, concentration 12.5 g/50 mL, i.e., 0.25 g/mL or 25% (w/v)), or both. The volume ratio of Radiesse:STS solution ranged from 2:1 to 4:1. In the control group, samples were not treated after the Radiesse® injection.
as §1, with “1A-1D).” for “1E-1F).”

[4] = Method: A filler composition comprising CaHA and HA (hyaluronic acid) was used in a subject. 0.4 ml of CaHA was mixed with 0.4 ml of a highly cohesive HA filler and injected into the volar surface of a human forearm. 0.4 ml of intralesional (IL) STS was injected intralesionally into the treated area. 4 hours after treatment, a 5-mm punch biopsy was obtained. H &E was used to evaluate the presence, absence, or degradation of calcium hydroxyapatite and hyaluronic acid. A blinded, board-certified dermatopathologist read the samples and determined the amount of calcium present in each sample.
[5] = 1-2 h post-STS injection
Method: In the prospective histology study, 3 patients received Radiesse® injections (12-20 injections/patient) followed by intralesional STS injection (STS, concentration 12.5 g/50 mL, i.e., 0.25 g/mL) in the abdomen/arm prior to abdominoplasty/brachioplasty. Patients received various Radiesse:STS solution volume ratios ranging from 1:1 to 1:2.5, including patient 1: 0.5 mL CaHA and 0.5 mL STS per site (volume ratio of CaHA:STS is 1:1); patient 2: 0.2 mL CaHA and 0.5 mL STS per site (volume ratio of CaHA:STS is 1:2.5); patient 3: 0.15 mL CaHA and 0.3 mL STS per site (volume ratio of CaHA:STS is 1:2). Tissue was harvested about 1-2 h after STS injection, and a 4-mm punch biopsy was assessed for the presence of CaHA (using hematoxylin-eosin sections).
(§2) At visit 1, deep CaHA nodules were injected using a 32-gauge half inch needle with STS (STS, concentration 12.5 g/50 mL, i.e., 0.25 g/mL; 2 injections; 0.3 mL total). At visit 2 (about 3-4 weeks after visit 1), the patient received subsequent injections using a 32-gauge half inch needle on a luer lock syringe of STS (0.3 mL total) to superficial CaHA nodules.

[6] = remark: listed apart in the source
Method: as §2

[7] = over the next 4 days or so after visit 1

Compound: hyaluronidase
ability to dissolve / reduce calcium hydroxyapatite [1]: cannot effectively dissolve

Compound: O=C(O)CN(CCN(CC(=O)O)CC(=O)O)CC(=O)O [EDTA, ethylenediaminetetraacetic acid]
ability to dissolve / reduce calcium hydroxyapatite [1]: unsuccessful

effects on collagen or surrounding structures [2]: no apparent deleterious effects | % of calcium hydroxyapatite degraded 24 hrs after treatment [3]: ~50%
Compound: O=S([O-])S(=O)(=O)[O-].[Na+].[Na+] [SMB, sodium metabisulfite]
dissolution of calcium hydroxyapatite in the samples ([2]; human skin samples): reduced, but did not entirely clear | dissolution of calcium hydroxyapatite in the samples ([3]; porcine samples): reduced, but did not entirely clear

Compound: O=S([O-])([O-])=S.[Na+].[Na+] [STS, sodium thiosulfate]
reduction of the amount of calcium phosphate tissue filler ([4]; about 24 hours after administration): about 100% | effects on collagen or surrounding structures ([4]; human tissue, intralesional STS): no apparent deleterious effects | dissolution of CaHA in a mixture of CaHA and HA ([4]; reduced time period of 4 hours): completely dissolve | dissolution of calcium hydroxyapatite in the sample ([4]; twenty-four hours after intralesional STS injection, 0.4 ml STS, 0.4 ml CaHA + 0.4 ml HA): completely dissolved | % of calcium hydroxyapatite degraded 24 hrs after treatment ([2]; human skin samples, 0.4 mL Radiesse, STS 0.25 g/mL about 0.4-0.8 mL intralesional, SMB 25% (w/v) topical with occlusion, 4-mm punch biopsy): 100% | dissolution of calcium hydroxyapatite in the samples ([2]; human skin samples): completely dissolved | effects on collagen or surrounding structures ([2]; human tissue, intralesional STS and/or topical SMB): no apparent deleterious effects | CaHA dissolution in histologic analyses ([5]; all human tissue samples, CaHA:STS volume ratio 1:1 to 1:2.5): markedly dissolved | CaHA decrease ([5]; human tissue samples): no less than 70% | % of calcium hydroxyapatite degraded 24 hrs after treatment ([3]; porcine samples, 0.4-0.8 mL Radiesse, STS 25% (w/v) about 0.2 mL intralesional, SMB 25% (w/v) topical with occlusion, 4-mm punch biopsy): 100% | dissolution of calcium hydroxyapatite in the samples ([3]; porcine samples): completely dissolved | time until burning sensation resolved ([6]; after immediate ice application): ≤ 1 min | burning sensation upon injection, 10-point pain scale ([6]; both visits): 5-6 | erythema [6, 7]: concomitant reduction in erythema | nodule sizes (patient reported) [6, 7]: progressive reduction in nodule sizes | effect on deep nodules ([6]; visit 1, first STS injection, 0.3 mL total, 0.25 g/mL): immediate softening | time until superficial nodules softened and became semi-fluctuant ([6]; visit 2, STS 0.3 mL total): 1 to 2 min
